Results from PubChem BioAssay (NCI).
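Results reflect a 48-hour exposure of cells in 96-well plates to compound at five concentrations. GI50 marks 50% less growth. At the TGI there is no net growth.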

Legend:
Assay in all cases: inhibition of tumour cell growth, NCI panel, 48 h
HS 578T breast = system: HS 578T breast
HL-60(TB) leukemia = system: HL-60(TB) leukemia
PC-3 prostate = system: PC-3 prostate
SNB-19 CNS = system: SNB-19 CNS
TK-10 renal = system: TK-10 renal
HCC-2998 colon = system: HCC-2998 colon
UACC-62 melanoma = system: UACC-62 melanoma
HOP-62 NSCLC = system: HOP-62 NSCLC
SF-539 CNS = system: SF-539 CNS
MALME-3M melanoma = system: MALME-3M melanoma
DU-145 prostate = system: DU-145 prostate
SK-OV-3 ovarian = system: SK-OV-3 ovarian
UACC-257 melanoma = system: UACC-257 melanoma
OVCAR-8 ovarian = system: OVCAR-8 ovarian
BT-549 breast = system: BT-549 breast
IGROV1 ovarian = system: IGROV1 ovarian
SR leukemia = system: SR leukemia
SF-268 CNS = system: SF-268 CNS
NCI/ADR-RES ovarian = system: NCI/ADR-RES ovarian
A498 renal = system: A498 renal
SW-620 colon = system: SW-620 colon
K-562 leukemia = system: K-562 leukemia
RPMI-8226 leukemia = system: RPMI-8226 leukemia
NCI-H23 lung = system: NCI-H23 lung
NCI-H460 lung = system: NCI-H460 lung
LOX IMVI melanoma = system: LOX IMVI melanoma
HOP-92 NSCLC = system: HOP-92 NSCLC
T-47D breast = system: T-47D breast
KM12 colon = system: KM12 colon
A549 NSCLC = system: A549 NSCLC
CAKI-1 renal = system: CAKI-1 renal
SK-MEL-5 melanoma = system: SK-MEL-5 melanoma
EKVX NSCLC = system: EKVX NSCLC
MDA-MB-435 = system: MDA-MB-435
HCT-116 colon = system: HCT-116 colon
MCF7 breast = system: MCF7 breast
ACHN renal = system: ACHN renal
RXF 393 renal = system: RXF 393 renal
M14 melanoma = system: M14 melanoma
NCI-H226 lung = system: NCI-H226 lung
CCRF-CEM leukemia = system: CCRF-CEM leukemia
MOLT-4 leukemia = system: MOLT-4 leukemia
HCT-15 colon = system: HCT-15 colon
HT29 colon = system: HT29 colon
UO-31 renal = system: UO-31 renal
SNB-75 CNS = system: SNB-75 CNS
MDA-MB-231 breast = system: MDA-MB-231 breast
SK-MEL-28 melanoma = system: SK-MEL-28 melanoma
NCI-H522 lung = system: NCI-H522 lung
OVCAR-5 ovarian = system: OVCAR-5 ovarian
OVCAR-4 ovarian = system: OVCAR-4 ovarian
SF-295 CNS = system: SF-295 CNS
OVCAR-3 ovarian = system: OVCAR-3 ovarian
SN12C renal = system: SN12C renal
U251 CNS = system: U251 CNS
786-0 renal = system: 786-0 renal
SK-MEL-2 melanoma = system: SK-MEL-2 melanoma
COLO 205 colon = system: COLO 205 colon

## Cc1cc(C(=O)c2ccccc2)c(C)c2c1[nH]c1ccc(Cl)cc12
HS 578T breast
  GI50: 50.1 nM
  TGI: 27800 nM
HL-60(TB) leukemia
  GI50: 39.8 nM
  TGI: 1780 nM
PC-3 prostate
  GI50: 52.6 nM
  TGI: > 43900 nM
SNB-19 CNS
  GI50: 54.1 nM
  TGI: 35100 nM
TK-10 renal
  GI50: 3110 nM
  TGI: 31300 nM
HCC-2998 colon
  GI50: 176 nM
  TGI: 8140 nM
UACC-62 melanoma
  GI50: 39.9 nM
  TGI: 18700 nM
HOP-62 NSCLC
  GI50: 67 nM
  TGI: 23000 nM
SF-539 CNS
  GI50: 41.5 nM
  TGI: 799 nM
MALME-3M melanoma
  GI50: 55.8 nM
  TGI: 15900 nM
DU-145 prostate
  GI50: 112 nM
  TGI: > 42100 nM
SK-OV-3 ovarian
  GI50: 350 nM
  TGI: > 50600 nM
UACC-257 melanoma
  GI50: 4480 nM
  TGI: 79600 nM
OVCAR-8 ovarian
  GI50: 148 nM
  TGI: > 100000 nM
BT-549 breast
  GI50: 94.1 nM
  TGI: 3560 nM
IGROV1 ovarian
  GI50: 65.7 nM
  TGI: 15700 nM
SR leukemia
  GI50: 38.3 nM
  TGI: > 63400 nM
SF-268 CNS
  GI50: 715 nM
  TGI: > 78300 nM
NCI/ADR-RES ovarian
  GI50: 48.5 nM
  TGI: > 100000 nM
A498 renal
  GI50: 30.5 nM
  TGI: 282 nM
SW-620 colon
  GI50: 49.7 nM
  TGI: > 100000 nM
K-562 leukemia
  GI50: 34.8 nM
  TGI: > 100000 nM
RPMI-8226 leukemia
  GI50: 58.1 nM
  TGI: 22000 nM
NCI-H23 lung
  GI50: 101 nM
  TGI: > 47000 nM
NCI-H460 lung
  GI50: 41 nM
  TGI: 14700 nM
LOX IMVI melanoma
  GI50: 64.2 nM
  TGI: 10300 nM
HOP-92 NSCLC
  GI50: 1710 nM
  TGI: 21200 nM
T-47D breast
  GI50: 44.7 nM
  TGI: > 87200 nM
KM12 colon
  GI50: 45 nM
  TGI: 7230 nM
A549 NSCLC
  GI50: 83.4 nM
  TGI: > 100000 nM
CAKI-1 renal
  GI50: 52.1 nM
  TGI: 6050 nM
SK-MEL-5 melanoma
  GI50: 68 nM
  TGI: 1190 nM
EKVX NSCLC
  GI50: 126 nM
  TGI: > 100000 nM
MDA-MB-435
  GI50: 28.6 nM
  TGI: 321 nM
HCT-116 colon
  GI50: 43.7 nM
  TGI: 4740 nM
MCF7 breast
  GI50: 36.1 nM
  TGI: 17900 nM
ACHN renal
  GI50: 66.9 nM
  TGI: 15500 nM
RXF 393 renal
  GI50: 23.5 nM
  TGI: 77.1 nM
M14 melanoma
  GI50: 45.6 nM
  TGI: > 41700 nM
NCI-H226 lung
  GI50: 892 nM
  TGI: 15600 nM
CCRF-CEM leukemia
  GI50: 46 nM
  TGI: > 100000 nM
MOLT-4 leukemia
  GI50: 103 nM
  TGI: > 54200 nM
HCT-15 colon
  GI50: 49.2 nM
  TGI: 5100 nM
HT29 colon
  GI50: 39.3 nM
  TGI: 1930 nM
UO-31 renal
  GI50: 102 nM
  TGI: 14100 nM
SNB-75 CNS
  GI50: 25 nM
  TGI: 3420 nM
MDA-MB-231 breast
  GI50: 255 nM
  TGI: 5710 nM
SK-MEL-28 melanoma
  GI50: 3640 nM
  TGI: 72300 nM
NCI-H522 lung
  GI50: 26.7 nM
  TGI: 4900 nM
OVCAR-5 ovarian
  GI50: 294 nM
  TGI: 28000 nM
OVCAR-4 ovarian
  GI50: 3010 nM
  TGI: 60000 nM
SF-295 CNS
  GI50: 29.4 nM
  TGI: 363 nM
OVCAR-3 ovarian
  GI50: 42.6 nM
  TGI: 9800 nM
SN12C renal
  GI50: 117 nM
  TGI: 14300 nM
U251 CNS
  GI50: 61.2 nM
  TGI: 16200 nM
786-0 renal
  GI50: 62.9 nM
  TGI: 3510 nM
SK-MEL-2 melanoma
  GI50: 82.9 nM
  TGI: 29200 nM
COLO 205 colon
  GI50: 102 nM
  TGI: 1360 nM
